pKi: −log10 of the molar value. In brackets after ≈: the same amount, converted by molar mass.

Assay [1] deals with Staphylococcus aureus MRQR. The assay can be described thus: MIC, standard in-vitro test, agar dilution. The conditions noted are these: Staphylococcus aureus MRQR (methicillin resistant and quinolone resistant), 10^4 CFU/spot, 37° C., 24 hours. Type of assay: cell-based. As for the experimental part: (§1) The following results were obtained on a standard in-vitro test system The activity is described in terms of the minimum inhibitory concentration (MIC) determined by the agar-dilution technique with an inoculum size of 10^4 CFU/spot. Typically, compounds are active in the range 0.01 to 256 μg/ml.
(§2) Staphylococci were tested on agar, using an inoculum of 10^4 CFU/spot and an incubation temperature of 37° C. for 24 hours—standard test conditions for the expression of methicillin resistance.

Assay [2] relates to Staphylococcus aureus MSQS. Nature of the assay: MIC, standard in-vitro test, agar dilution. Format: cell-based. The settings on record: Staphylococcus aureus MSQS (methicillin sensitive and quinolone sensitive), 10^4 CFU/spot, 37° C., 24 hours. The method, then:
as §1, §2
In general terms: In agar dilution, organisms are placed on agar that contains the substance at set levels.

For another assay, the system named is Enterococcus faecium. Nature of the assay: MIC, standard in-vitro test, agar with 5% horse blood. The settings on record: agar with 5% defibrinated horse blood, 48 hours. Format: cell-based. As for the experimental part: as §1
(§3) Streptococci and enterococci were tested on agar supplemented with 5% defibrinated horse blood, an inoculum of 10^4 CFU/spot and an incubation temperature of 37° C. in an atmosphere of 5% carbon dioxide for 48 hours—blood is required for the growth of some of the test organisms. Fastidious Gram negative organisms were tested in Mueller-Hinton broth, supplemented with hemin and NAD, grown aerobically for 24 hours at 37° C., and with an innoculum of 5×10^4 CFU/well

Assay [3] has as its system Linezolid Resistant Streptococcus pneumoniae. Described as above. Type of assay: cell-based. The conditions noted are these: agar with 5% defibrinated horse blood, 48 hours. The method, then: as §1, §3
For a further assay, the system named is Streptococcus pneumoniae. The assay is described as above. Format: cell-based. The settings on record: agar with 5% defibrinated horse blood, 10^4 CFU/spot, 37° C., 5% carbon dioxide, 48 hours. As for the experimental part:
as §1, §3

For a further assay, the system named is Haemophilus influenzae. Nature of the assay: MIC, fastidious Gram negative organisms in Mueller-Hinton broth. The conditions noted are these: Mueller-Hinton broth with hemin and NAD, 24 hours, 37° C., 5×10^4 CFU/well. Type of assay: cell-based. As for the experimental part: as §1, §3
For the next assay, the system named is Moraxella catarrhalis. Described as above. Type of assay: cell-based. The conditions noted are these: Mueller-Hinton broth with hemin and NAD, 24 hours, 37° C., 5×10^4 CFU/well. The method, then: as §1, §3
In a further assay the target is T1, MAO-A (Homo sapiens, UniProt P21397).
T1 sequence (P21397 1-527): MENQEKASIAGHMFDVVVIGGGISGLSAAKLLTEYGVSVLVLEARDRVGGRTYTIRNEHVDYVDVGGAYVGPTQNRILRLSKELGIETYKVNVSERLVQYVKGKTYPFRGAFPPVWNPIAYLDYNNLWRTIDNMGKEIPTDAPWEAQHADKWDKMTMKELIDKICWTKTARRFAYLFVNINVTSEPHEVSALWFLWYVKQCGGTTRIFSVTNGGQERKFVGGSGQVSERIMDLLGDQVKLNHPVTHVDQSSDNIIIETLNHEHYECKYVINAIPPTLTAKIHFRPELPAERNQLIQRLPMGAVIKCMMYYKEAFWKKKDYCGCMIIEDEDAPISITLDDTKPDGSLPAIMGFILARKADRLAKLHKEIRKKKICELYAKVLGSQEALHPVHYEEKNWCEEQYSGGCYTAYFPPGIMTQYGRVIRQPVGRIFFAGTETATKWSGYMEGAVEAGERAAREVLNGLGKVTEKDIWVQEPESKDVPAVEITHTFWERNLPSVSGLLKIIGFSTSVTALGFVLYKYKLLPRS
Nature of the assay: MAO-A inhibition (Ki). Type of assay: biochemical. The conditions noted are these: * = approximate values.

In the case of `O=C1O[C@@H](Cn2ccnn2)CN1c1ccc(-c2ccc(C3=NOC(CO)(CO)C3)cc2)c(F)c1` [Example 2, (5R)-3-{4′-(5,5-bis(Hydroxymethyl)-4,5-dihydroisoxazol-3-yl]-2-fluoro-1,1′-biphenyl-4-yl}-5-(1H-1,2,3-triazol-1-ylmethyl)-1,3-oxazolidin-2-one], the MIC in assay [1] was determined as 0.5 µg/mL (≈ 1.07 µM); in assay [2] it was 0.5 µg/mL (≈ 1.07 µM); with Enterococcus faecium, 0.25 µg/mL (≈ 0.535 µM); in assay [3], 1 µg/mL (≈ 2.14 µM); in the assay with Streptococcus pneumoniae it was 0.13 µg/mL (≈ 0.278 µM); with Haemophilus influenzae, 4 µg/mL (≈ 8.56 µM). In the assay with Moraxella catarrhalis, this molecule came in with an MIC of 0.5 µg/mL (≈ 1.07 µM).

A word on the pKi: it is −log10 of the Ki, conventionally taken in molar units. Lower therefore signals a high Ki. `O=C1O[C@@H](Cn2ccnn2)CN1c1ccc(-c2ccc(C3=NO[C@@H]([C@@H](O)CO)C3)nc2)c(F)c1` [Example 54, (5R)-3-[4-(6-{(5R)S-5-[(1S)-1,2-Dihydroxyethyl]-4,5-dihydroisoxazol-3-yl}pyridin-3-yl)-3-fluorophenyl]-5-(1H-1,2,3-triazol-1-ylmethyl)-1,3-oxazolidin-2-one]: the pKi at MAO-A is 5.10.

Source of the values: patent publication US20060116400A1, “Oxazolidinone and/or isoxazoline derivatives as antibacterial agents” (AstraZeneca AB, priority 2002, published 2006).
